Test results: ChEMBL document CHEMBL1122355, “Quantitative structure-activity relationships for 2-[(phenylmethyl)sulfonyl]pyridine 1-oxide herbicides” (1983)

Experiments:
Type in all cases: functional
Echinochloa crus-galli = experiment: Herbicidal activity against barnyard grass (Echinochloa crusgalli L. Beauv.) as the dose required for 50% control
Panicum virgatum = experiment: Herbicidal activity against Switch grass (Panicum virgatum L.) as the dose required for 50% control
Setaria viridis = experiment: Herbicidal activity against green foxtail (Setaria viridis L. Beauv.) as the dose required for 50% control

Structure (SMILES)	-Log ED50 (Echinochloa crus-galli) [M acre-1]	-Log ED50 (Panicum virgatum) [M acre-1]	-Log ED50 (Setaria viridis) [M acre-1]
O=S(=O)(Cc1c(Cl)cccc1Cl)c1cccc[n+]1[O-]	0.96	0.74	0.74
O=S(=O)(Cc1ccc(-c2ccccc2)cc1)c1cccc[n+]1[O-]	-0.69	-0.19	-0.54
Cc1ccc(C)c(CS(=O)(=O)c2cccc[n+]2[O-])c1C	0.7	0.7	0.7
COc1ccc(Br)c(CS(=O)(=O)c2cccc[n+]2[O-])c1	0.6	0.95	0.5
CCCCOc1cccc(CS(=O)(=O)c2cccc[n+]2[O-])c1	0.15	-0.15	-0.15
CC(c1cc(Cl)ccc1Cl)S(=O)(=O)c1cccc[n+]1[O-] (centres undefined)	1.07	1.07	0.86
O=S(=O)(Cc1ccccc1Cl)c1cccc[n+]1[O-]	0.85	0.4	0.43
Cc1ccccc1C(C)S(=O)(=O)c1cccc[n+]1[O-] (centres undefined)	1.58	1.29	1.29
Cc1ccc(C(F)(F)F)cc1C(C)S(=O)(=O)c1cccc[n+]1[O-] (centres undefined)	0.79	1.09	1.09
COc1ccc(CS(=O)(=O)c2cccc[n+]2[O-])cc1OC	0.13	0.23	-0.01
Cc1c(Cl)ccc(C(C)S(=O)(=O)c2cccc[n+]2[O-])c1Cl (centres undefined)	0.68	1	0.89
Cc1ccc(Cl)c(C(C)S(=O)(=O)c2cccc[n+]2[O-])c1 (centres undefined)	1.35	0.82	0.66
CC(c1cc(F)ccc1F)S(=O)(=O)c1cccc[n+]1[O-] (centres undefined)	1.22	1.22	1.17
COc1cc(CS(=O)(=O)c2cccc[n+]2[O-])cc(OC)c1OC	-0.77	-0.77	-0.79
CC(c1c(F)cccc1Cl)S(=O)(=O)c1cccc[n+]1[O-] (centres undefined)	1.35	1.65	1.35
Cc1ccc(C)c(C(C)S(=O)(=O)c2cccc[n+]2[O-])c1 (centres undefined)	1.3	1.25	1.25
Cc1ccc(C)c(CS(=O)(=O)c2cccc[n+]2[O-])c1	1.09	0.99	0.39
O=S(=O)(Cc1cccc(Br)c1)c1cccc[n+]1[O-]	0.16	0.03	-0.14
CC(c1cc(C(F)(F)F)ccc1Cl)S(=O)(=O)c1cccc[n+]1[O-] (centres undefined)	0.91	1.26	0.63

Structure (SMILES)	-Log ED50 (Echinochloa crus-galli) [M acre-1]	-Log ED50 (Panicum virgatum) [M acre-1]	-Log ED50 (Setaria viridis) [M acre-1]
CCc1ccc(CC)c(C(C)S(=O)(=O)c2cccc[n+]2[O-])c1 (centres undefined)	1.15	1.15	1.05
O=S(=O)(Cc1ccccc1I)c1cccc[n+]1[O-]	0.52	0.32	0.22
Cc1ccc(C(C)S(=O)(=O)c2cccc[n+]2[O-])cc1C (centres undefined)	1.31	1.24	1.07
Cc1ccc(C(C)C)cc1C(C)S(=O)(=O)c1cccc[n+]1[O-] (centres undefined)	0.89	0.7	0.57
CC(C)c1ccc(C(C)C)c(CS(=O)(=O)c2cccc[n+]2[O-])c1	-0.02	-0.02	-0.02
CC(c1cccc(C(F)(F)F)c1)S(=O)(=O)c1cccc[n+]1[O-] (centres undefined)	0.46	1.37	0.77
O=S(=O)(Cc1ccccc1)c1cccc[n+]1[O-]	0.29	0.04	0.14
CC(C)c1ccc(C(C)C)c(C(C)S(=O)(=O)c2cccc[n+]2[O-])c1 (centres undefined)	0.78	0.19	0.19
CC(C)c1ccc(CS(=O)(=O)c2cccc[n+]2[O-])cc1	-0.1	0.62	-0.1
CC(c1cccc(Cl)c1F)S(=O)(=O)c1cccc[n+]1[O-] (centres undefined)	1.36	1.24	1.05
Cc1cc(Cl)ccc1C(C)S(=O)(=O)c1cccc[n+]1[O-] (centres undefined)	0.84	0.98	0.79
CC(c1ccc(S(C)(=O)=O)cc1)S(=O)(=O)c1cccc[n+]1[O-] (centres undefined)	-0.43	-0.35	-0.43
CC(c1ccc(Cl)cc1)S(=O)(=O)c1cccc[n+]1[O-] (centres undefined)	0.9	1.14	0.82
N#Cc1ccccc1CS(=O)(=O)c1cccc[n+]1[O-]	0.18	-0.22	-0.01
O=S(=O)(Cc1c(Cl)ccc(Cl)c1Cl)c1cccc[n+]1[O-]	0.81	0.81	0.49
O=S(=O)(Cc1ccccc1Oc1ccccc1)c1cccc[n+]1[O-]	-0.12	0.11	-0.03
COc1ccc(C)cc1CS(=O)(=O)c1cccc[n+]1[O-]	1.02	0.73	0.41
O=S(=O)(Cc1ccccc1F)c1cccc[n+]1[O-]	0.37	0.77	0.07
CC(c1ccc([N+](=O)[O-])cc1)S(=O)(=O)c1cccc[n+]1[O-] (centres undefined)	0.43	0.43	0.23
